# Test results taken from patent US11998549B2, “Methods of treating a vascular leakage-associated disease or disorder” (UNITY HEALTH TORONTO, priority 2019, dated 2024).
# Entries after “also recorded” stand apart in the source; their conditions may differ.
# How the values were obtained:
# [1] = tested on: LPS-induced tailfin edema; assay: Tailfin edema in LPS-treated zebrafish larvae; assay type: in vivo
# Experimental: An LPS induced zebrafish sepsis model which mimics the hallmarks of human sepsis was developed (Philip et al., 2017). Zebrafish show varied susceptibility and responsiveness to LPS from different bacterial strains. Exposure of zebrafish larvae at 3 days post-fertilization (dpf) to two types of LPS (LPS from Escherichia coli 0111:B4 (Sigma) at 100 μg/ml for 5-6 hrs; or LPS from Salmonella at 27 μg/ml for 24 hrs) were both effective in inducing tail fin swelling, increased ROS production, increased vascular leakage and increased mortality.
# CLP-induced mortality = assay: Mouse cecal ligation and puncture (CLP) model of sepsis, survival; assay type: in vivo; settings: intravenous infusion of 1 mg/kg
# Experimental: The CLP model is a well established clinically relevant model for human sepsis (Smeding et al., 2012; Amatullah et al., 2016). Male 8-12 week old C57/B16 mice (Jackson lab) were randomized to CLP or sham surgeries. In anesthetised mice, the cecum was exteriorized, ligated, and perforated. Control animals were exposed to sham surgery, in which the cecum was manipulated, but not ligated or punctured. After surgery, animals received daily fluid resuscitation (subcutaneous (s.c.) 50 ml/kg saline), antibiotic (intraperitoneal (i.p.) imipenem 25 mg/kg) and pain management (s.c. buprenorphine 0.2 mg/kg). Experiments were divided into 2 groups: (1) to assess 7-day survival, and (2) to identify a mechanism of action of a G9a inhibitor in vivo. All experimental mice were randomized and investigators were blinded to group assignment.
# [2] = biological target: T1, active human EHMT2/G9a protein fragment (Homo sapiens, UniProt Q96KQ7); assay: G9a inhibitor in vitro histone methyltransferase assay; assay type: biochemical
# T1 construct: active human EHMT2/G9a protein fragment (ab80323); purchased ab80323
# T1 sequence (Q96KQ7 785-1210 limits assumed): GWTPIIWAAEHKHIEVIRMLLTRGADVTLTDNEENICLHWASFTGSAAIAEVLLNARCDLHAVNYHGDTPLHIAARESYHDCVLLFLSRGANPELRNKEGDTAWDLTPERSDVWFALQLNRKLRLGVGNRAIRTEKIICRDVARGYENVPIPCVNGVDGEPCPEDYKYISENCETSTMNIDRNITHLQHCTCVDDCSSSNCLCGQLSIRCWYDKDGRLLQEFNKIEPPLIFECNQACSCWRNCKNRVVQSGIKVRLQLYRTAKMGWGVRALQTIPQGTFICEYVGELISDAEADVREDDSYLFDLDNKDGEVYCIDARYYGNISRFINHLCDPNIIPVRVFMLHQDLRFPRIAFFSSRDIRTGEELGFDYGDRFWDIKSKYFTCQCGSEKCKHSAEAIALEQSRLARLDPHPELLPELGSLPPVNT
# Excerpt: The commercially available Histone H3 (K9) Methyltransferase Activity Quantification Assay Kit (ab113453) was used for this assay and a modified protocol was adopted. Briefly, the histone substrate is stably captured on the strip wells. Uninhibited G9a methyltransferase (active human EHMT2/G9a protein fragment (ab80323)) will transfer a methyl group to histone H3 substrate from Adomet to methylate the substrate at lysine 9. The methylated histone H3K9 can be recognized with a high-affinity antibody. The ratio or amount of methylated H3K9, which is directly proportional to enzyme activity, can be quantified through HRP-conjugated secondary antibody color development system. In the presence of inhibitors of G9a methyltransferase, this reaction will be inhibited. […] The color should change to yellow and absorbance can be read on a microplate reader at 450 nm within 2-15 minutes.
# G9a activity or inhibition was calculated as follows: plot OD value versus amount of G9a Standard and determine the slope. […]
# [3] = tested on: H3K9me2 in venous endothelial cell nuclei; assay: H3K9me2 immunofluorescence in zebrafish larvae; assay type: in vivo; settings: LPS 100 μg/ml + 1 μM UNC0642, 5 h
# Experimental: 3 dpf Tg eGFP) larvae were exposed to Vehicle, LPS (100 μg/ml) or LPS+1 μM UNC0642 by static immersion for 5 h at 28.5° C. Embryos were fixed overnight at 4° C. in 2% PFA in PBST (PBS+0.1% Tween 20). Embryos were then washed 4×5 min in PBST at room temperature (RT) and permeabilized for 30 min at RT in PBST+0.5% TritonX-100. Embryos were then blocked in PBST+0.1% TritonX-100+10% NGS+1% BSA for 2 h at RT. Embryos were incubated with primary antibodies (Mouse monoclonal (mAbcam 1220) to Histone H3 (di-methyl K9) in blocking solution (1:200) overnight at 4° C. Embryos were then washed 6×20 min in PBST at RT and then incubated with the secondary antibody (Goat anti-mouse IgG Alexa fluor 647; 1:1000) in blocking solution for 2 h at RT. Embryos were finally washed 3×10 min in PBST at RT. Images were taken with a Zeiss Confocal Microscope.
# H3K9me2 in HPMECs = assay: H3K9me2 Western blot in LPS-treated HPMECs; assay type: cell-based, human; settings: LPS 1 ug/ml +/- UNC0642 2.5 nM, 24 hours
structure (smiles),measurement,setting,value
"COc1cc2c(NC3CCN(C(C)C)CC3)nc(N3CCC(F)(F)CC3)nc2cc1OCCCN1CCCC1 [UNC0642, 2-(4,4-Difluoropiperidin-1-yl)-6-methoxy-N-[1-(propan-2-yl)piperidin-4-yl]-7-(3-(pyrrolidin-1-yl)propoxy]quinazolin-4-amine]",LPS-induced tailfin edema,[1],significantly reduced
same,Reduction of CLP-induced absolute mortality,CLP-induced mortality,~50%
same,G9a methyltransferase activity,[2],inhibits G9a methyltransferase activity in a dose dependent manner
same,LPS induced increased H3K9me in venous endothelial cell nuclei,[3],rescues LPS induced increased H3K9me
same,H3K9me2 by Western Blot,H3K9me2 in HPMECs,decreased H3K9me2; also recorded: reduction in this H3K9me2
